Assay results taken from patent US20080113908A1, “Use of CRF receptor agonists for the treatment or Prophylaxis of diseases, for example Neurodegenerative diseases” (SmithKline Beecham plc, priority 2000, published 2008).
Read-outs that look alike come from different tables or passages of the source. Ends that are not written are not given here.

How the values were obtained:
[1] = test system: primary cerebellar granule neurones; test: Assay 2: effect of CP154,526 on agonist protection against LY294002 neurotoxicity; format: cell-based, rat; settings: LY 294002 75 μM; for effect of CP 154,526 on neuroprotective effect of CRF receptor agonist (FIGS. 2B-D): urocortin, urotensin 1 or sauvagine 10 nM
Method: Assay 2: This assay measures the effects of CP154,526, a selective CRF receptor-1 antagonist, on the protective effects of a putative CRF receptor agonist against neurotoxicity induced by LY294002 in primary cerebellar granule neurones. The assay is identical to Assay 1 except that after shifting the granule neurone cultures to the medium, the cultures were incubated with CP154,526 at concentrations varying from 3 nM to 1000 nM for 30 minutes prior to simultaneous addition of the putative CRF receptor agonist (10 nM) and LY 294002 (75 μM). 48 hours later neuronal survival was measured as in Assay 1.
The columns from left to right represent: (1) control: cells cultured with CRF (10 nM) and LY 294002 (75 μM); (2 to 7) cells cultured with CRF (10 nM), LY 294002 (75 μM) and CP 154,526 at concentrations of 3 nM, 10 nM, 30 nM, 100 nM, 300 nM and 1000 nM respectively; and (8) cells cultured without agonist (CRF) but with LY 294002 (75 μM).

hippocampal neurones = test: Amyloid-β peptide (25-35) toxicity, survival by counting viable neurons (FIGS. 8, 9); format: cell-based; settings: for neuronal death: 10-20 μM
Method: In order to test whether CRF receptor agonists protect neurones from death caused by Aβ, the following experiment was conducted (FIGS. 8 and 9). Hippocampal neurons from embryonic day 18 rat were cultured in serum-free medium (neurobasal/B27) for 9 days. The culture methods are described on page 48 of S. D. Skaper et al., J. Neurochem., 2001, 76, 47-55. Cells were then treated with amyloid-β peptide (fragment 25-35) (Sigma, cat. no. A-4559, sequence Gly-Ser-Asn-Lys-Gly-Ala-Ile-Ile-Gly-Leu-Met) at 10 μM plus the indicated CRF receptor agonist at the indicated concentration, in the same culture medium. […] Cell survival was assessed after 3 days, by fixing the cultures and counting microscopically viable neurons. Values are expressed relative to numbers of surviving neurons in untreated cultures (=100).

[2] = test system: cerebellar granule neurones; test: Assay 3: intracellular cyclic AMP enzyme immunoassay; format: cell-based, rat; settings: agonist 0 to 30 nM, 15 min, 0.5 mM IBMX
Method: Assay 3: The production of cAMP by the CRF receptor agonist peptides CRF, urotensin 1, urocortin and sauvagine was measured as follows. This assay can be used analogously for any putative CRF receptor agonists including non-peptide agonists.
Intracellular cyclic AMP was measured with a cAMP 2-site enzyme immunoassay system (trade mark BIOTRAK, commercially available from Amersham Pharmacia Biotech, PO Box 164, Rainham, Essex RM13 8JZ, United Kingdom, Amersham catalogue number RPN225), based upon the use of a sensitive and highly specific capture antibody for cyclic AMP:
Cerebellar granule neurones were seeded in polylysine-coated […] plates, 3.5×10^5 cells per 48-well, in Basal medium Eagle's containing 10% fetal calf serum, 25 mM KCl, and antibiotics. At 8-9 days in vitro, granule neurone cultures were shifted to serum-free plating medium (0.4 ml) with 0.5 mM IBMX (to inhibit the breakdown of cyclic AMP) for 15 min (37° C.). Wells then received 0.1 ml of test peptide (5× final concentration). Generally 1 μM is the preferable final concentration for a putative CRF agonist under test, though different (e.g. lower) concentrations can be used as shown for the peptide agonists in FIG. 3. Incubation was continued for 15 min. Test medium was removed and the plate placed on dry ice, and stored at −140° C. Cyclic AMP analysis was performed the following day.
Cells were then lysed with the reagent provided with the BIOTRAK kit. Intracellular content of cyclic AMP in the lysates was assayed following the manufacturer's instructions. A standard curve was constructed using the cyclic AMP calibration provided, with the quantity of bound cyclic AMP being inversely proportional to the amount of second (chromogenic) antibody bound to the reaction wells. The colour product was read with an ELISA plate reader, and was a function of the amount of cyclic AMP in the unknown sample.

[3] = test system: cerebellar granule neurones; format: cell-based, rat; settings: 48 h, MTT, sham-treated = 100%
Method: Cerebellar granule neurones were used in the examples to test neuroprotection by CRF receptor agonists. Cerebellar granule neurones (CGNs) undergo apoptosis during the first few weeks of postnatal life, and in culture require mildly depolarising concentrations of KCl (25 mM) for their survival and maturation (S. R: D'Mello et al., Proc. Natl. Acad. Sci. USA 90, 10989-10993, 1993). The growth signal provided by KCl depends upon activation of the phosphatidylinositol 3-kinase (PI 3-kinase) pathway, and pharmacological inhibition of PI 3-kinase in differentiated granule neurones leads to apoptotic death in the CGNs (T. M. Miller et al., J. Biol. Chem., 272, 9847-9853, 1997). Thus, cultured CGNs represent a suitable model to study mechanisms of programmed cell death, and to identify putative neuroprotective signalling pathways.
Assay 1: Cerebellar granule neurones prepared from postnatal day 8 Sprague Dawley rat pups were used for experiments on death induced by inhibition of PI 3-kinase. General culture methods are described in S. D. Skaper et al. in Methods in Neurosciences, Vol. 2 (Conn P. M., ed), pp. 17-33. Academic Press, San Diego, 1990. At 8-9 days in vitro (DIV), granule neurone cultures were shifted to phenol red-free Dulbecco's modified Eagle's medium lacking serum, and containing 0.05% bovine serum albumin and 25 mM KCl. Death was induced by addition of the PI 3-kinase inhibitor LY 294002 (75 μM). CRF or CRF agonist peptides (urotensin 1, urocortin, sauvagine) were added at different concentrations (from 0.3nM to 300 nM or 1000 nM) together with LY 294002. Forty-eight hours later neuronal survival was quantified by a colorimetric reaction MTT. Absolute MTT values obtained were normalised for small differences in interexperiment plating densities by scaling to the mean of sham-treated sister cultures (defined as 100%).
Results are shown in Table 1 below and in graphical form in FIG. 1, which show the percentage mean neuronal survival (and standard deviation), when in the presence of the relevant CRF receptor agonists and LY 294002, as a function of agonist concentration. […] Urotensin 1, urocortin and sauvagine were also neuroprotective albeit with lower potency (<1 μM).

[4] = biological target: CRF receptor-1 (Type 1 CRF receptor) on primary rat neurones (rat, UniProt P35353); test: cell-based or functional assay
[5] = agonist 0.3 nM with LY 294002 75 μM
[6] = agonist 1 nM with LY 294002 75 μM
[7] = agonist 3 nM with LY 294002 75 μM
[8] = agonist 10 nM with LY 294002 75 μM
[9] = agonist 30 nM with LY 294002 75 μM
[10] = agonist 100 nM with LY 294002 75 μM
[11] = agonist 300 nM with LY 294002 75 μM

## CCCCN(CC)c1nc(C)nc2c1c(C)cn2-c1c(C)cc(C)cc1C [CP 154,526]
[1]; CP 154,526 300 nM
  effect of CP 154,526 on neuroprotective effect of CRF receptor agonist (FIGS. 2B-D): partial reductions in neuroprotection
[1]; CP 154,526 1000 nM
  effect of CP 154,526 on neuroprotective effect of CRF receptor agonist (FIGS. 2B-D): remove most or all of the neuroprotective effect
[1]; CP 154,526 as low as 300 nM, CRF 10 nM
  effect of CP 154,526 on neuroprotective effect of CRF (FIG. 2A): remove almost completely the neuroprotective effect of 10 nM CRF
Hippocampal neurones; CP-154,526 1 μM with CRF (30 nM) and Aβ(25-35) 10 μM, 3 days
  effect of CP-154,526 on CRF's neuroprotection (FIG. 8): cancels all of CRF's neuroprotection

## CC[C@H](C)[C@H](NC(=O)[C@@H](NC(=O)[C@H](CC(=O)O)NC(=O)[C@H](CC(C)C)NC(=O)[C@H](CC(C)C)NC(=O)[C@H](CC(C)C)NC(=O)[C@H](CCCNC(=N)N)NC(=O)[C@H](CC(N)=O)NC(=O)[C@H](CC(N)=O)NC(=O)[C@H](C)NC(=O)[C@H](C)NC(=O)[C@H](CCC(N)=O)NC(=O)[C@H](CCC(N)=O)NC(=O)[C@H](CCCCN)NC(=O)[C@H](CCC(=O)O)NC(=O)[C@H](CCCCN)NC(=O)[C@H](CCC(=O)O)NC(=O)[C@H](CCC(N)=O)NC(=O)[C@H](CCCCN)NC(=O)[C@H](CCC(=O)O)NC(=O)[C@@H](NC(=O)[C@H](CCC(=O)O)NC(=O)[C@@H](NC(=O)[C@H](CCSC)NC(=O)[C@H](CCCCN)NC(=O)[C@H](CCCNC(=N)N)NC(=O)[C@H](CC(C)C)NC(=O)[C@H](CC(C)C)NC(=O)[C@H](CCC(=O)O)NC(=O)[C@H](CC(C)C)NC(=O)[C@H](CO)NC(=O)[C@H](CC(C)C)NC(=O)[C@H](CC(=O)O)NC(=O)[C@@H](NC(=O)[C@H](CO)NC(=O)[C@@H](NC(=O)[C@@H]1CCCN1C(=O)[C@@H]1CCCN1C(=O)CNC(=O)[C@@H]1CCC(=O)N1)[C@@H](C)CC)[C@@H](C)CC)[C@@H](C)CC)[C@@H](C)CC)[C@@H](C)O)C(N)=O [Sauvagine]
[2]
  cAMP synthesis induced by agonist (FIG. 3): cAMP production increased with agonist concentration
[3]; [5]
  Mean survival %: 49.33%
[3]; [6]
  Mean survival %: 66.5%
[3]; [7]
  Mean survival %: 76.33%
[3]; [8]
  Mean survival %: 80.67%
[3]; [9]
  Mean survival %: 78.67%
[3]; [10]
  Mean survival %: 77.33%
[3]; [11]
  Mean survival %: 78.33%

## DDPPLSIDLTFHLLRTLLELARTQSQRERAEQNRIIFDSV [Urocortin, Urocortin (rat, Sigma Cat. no. U-6631), CRF receptor agonist peptide]
[2]
  cAMP synthesis induced by agonist (FIG. 3): cAMP production increased with agonist concentration
[3]; [5]
  Mean survival %: 50.67%
[3]; [6]
  Mean survival %: 61.33%
[3]; [7]
  Mean survival %: 69.33%
[3]; [8]
  Mean survival %: 77.33%
[3]; [9]
  Mean survival %: 80.67%
[3]; [10]
  Mean survival %: 75%
[3]; [11]
  Mean survival %: 84%

## GSNKGAIIGLM [Aβ, Gly-Ser-Asn-Lys-Gly-Ala-Ile-Ile-Gly-Leu-Met]
Hippocampal neurones; after 2-3 days
  neuronal death: cell death was visible
Hippocampal neurones; after 1 day of exposure
  neuronal death: no visible neuronal death

## MLGIIAGKNSG [reverse β-amyloid sequence (35-25)]
Hippocampal neurones; 20 μM, results not shown
  neurotoxicity of peptide: not to be neurotoxic

B1: Urotensin 1 (teleost fish, Sigma cat. no. U-7253) (peptide)
peptide: NDDPPISIDLTFHLLRNMIEMARIENEREQAGLNRKYLDEV-NH2
[4]
  potency of neuroprotection of cerebellar granule neurones against LY 294002 (Assay 1): < 1000 nM

B2: Rat CRF (corticotropin-releasing factor), Sigma catalogue no. C-3042 (peptide)
peptide: SQEPPISLDLTFHLLREVLEMTKADQLAQQAHNNRKLLDIA-NH2
[4]
  EC50 of neuroprotection of cerebellar granule neurones against LY 294002 (Assay 1): ~10 nM

B3: Urocortin (rat, Sigma Cat. no. U-6631) (peptide)
peptide: DDPPLSIDLTFHLLRTLLELARTQSQRERAEQNRIIFDSV-NH2
[4]
  potency of neuroprotection of cerebellar granule neurones against LY 294002 (Assay 1): < 1000 nM
